Patent publication US10988459B2 (priority 2015, dated 2021)

Each compound was assayed against human RIP1 kinase domain (2-375) (Homo sapiens (Human), UniProt Q13546) (assay: biochemical). Conditions: Ki.
Format: biochemical
Summary of the method: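 Ki^app comes from Morrison tight-binding fits of fractional activity versus compound concentration. Activity was read as ADP production, via tracer displacement lowering fluorescence polarization (633 nm laser). Conditions: 2 h, 50 nM insect-cell-expressed enzyme, 50 uM ATP, 30 mM MgCl2, 1 mM DTT, 0.5% DMSO, pH 7.5 Hepes.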

Chain of human RIP1 kinase domain (2-375) (Q13546 2-375): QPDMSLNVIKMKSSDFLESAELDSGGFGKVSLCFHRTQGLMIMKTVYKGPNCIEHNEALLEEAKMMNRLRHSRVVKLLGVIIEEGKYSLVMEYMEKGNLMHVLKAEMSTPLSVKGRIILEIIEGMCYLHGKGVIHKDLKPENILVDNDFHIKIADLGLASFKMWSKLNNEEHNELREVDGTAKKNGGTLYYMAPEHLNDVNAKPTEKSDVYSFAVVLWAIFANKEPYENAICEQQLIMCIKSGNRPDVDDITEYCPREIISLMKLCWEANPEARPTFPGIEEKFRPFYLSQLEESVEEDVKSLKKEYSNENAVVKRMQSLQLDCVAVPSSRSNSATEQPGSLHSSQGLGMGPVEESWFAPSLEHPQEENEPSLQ

Ki [nM]	SMILES
411	CN1C(=O)[C@@H](NC(=O)c2ncn(Cc3ccccc3)n2)CCn2nc(C3CNC3)cc21 [Example 754, 1-benzyl-N-[(6S)-2-(azetidin-3-yl)-4-methyl-5-oxo-7,8-dihydro-6H-pyrazolo[1,5-a][1,3]diazepin-6-yl]-1,2,4-triazole-3-carboxamide]

Same assay, conditions: Table 1; apparent Ki (Morrison tight-binding fit); 50 nM RIP1 kinase domain, 50 uM ATP, 2 hours incubation; read-out: RIP1 Ki

SMILES	Ki [nM]
CN1C(=O)[C@@H](NC(=O)c2nnc3ccc(C(F)(F)F)cn23)COc2ccccc21 [Example 82, (S)-N-(5-methyl-4-oxo-2,3,4,5-tetrahydrobenzo[b][1,4]oxazepin-3-yl)-6-(trifluoromethyl)-[1,2,4]triazolo[4,3-a]pyridine-3-carboxamide]	393
CC1CCc2cnc(C(=O)N[C@H]3COc4ccccc4N(C)C3=O)n2C1 (stereo partly drawn) [Example 11, 6-methyl-N—((S)-5-methyl-4-oxo-2,3,4,5-tetrahydrobenzo[b][1,4]oxazepin-3-yl)-5,6,7,8-tetrahydroimidazo[1,5-a]pyridine-3-carboxamide]	329
CN1C(=O)[C@@H](NC(=O)c2nnc3ccc(C(F)(F)F)nn23)COc2ccccc21 [Example 81, (S)-N-(5-methyl-4-oxo-2,3,4,5-tetrahydrobenzo[b][1,4]oxazepin-3-yl)-6-(trifluoromethyl)-[1,2,4]triazolo[4,3-b]pyridazine-3-carboxamide]	567
Cc1cnn2c1N(C)C(=O)C(NC(=O)c1nnc(Cc3ccccc3)[nH]1)CC2 (centres unmarked) [Example 31, 5-benzyl-N-(3,4-dimethyl-5-oxo-7,8-dihydro-6H-pyrazolo[1,5-a][1,3]diazepin-6-yl)-4H-1,2,4-triazole-3-carboxamide]	140

Same assay, conditions: Table 5; apparent Ki (Morrison tight-binding fit); 50 nM RIP1 kinase domain, 50 uM ATP, 2 hours incubation; read-out: Ki

Ki [nM]	SMILES
448	CN1C(=O)[C@@H](NC(=O)c2cc3c(Br)cccc3cn2)CCn2nccc21 (racemic) [Example 700, 5-bromo-N-[rac-(6S)-4-methyl-5-oxo-7,8-dihydro-6H-pyrazolo[1,5-a][1,3]diazepin-6-yl]isoquinoline-3-carboxamide]
172	COC1CN(CCc2cc3n(n2)CC[C@H](NC(=O)c2ncn(Cc4ccccc4F)n2)C(=O)N3C)C1 [Example 771, 1-[(2-fluorophenyl)methyl]-N-[(6S)-2-[-(3-methoxyazetidin-1-yl)ethyl]-4-methyl-5-oxo-7,8-dihydro-6H-pyrazolo[1,5-a][1,3]diazepin-6-yl]-1,2,4-triazole-3-carboxamide]

Same assay, conditions: human RIP1 kinase domain (2-375), 50 uM ATP, 2 hours incubation, Transcreener ADP assay; read-out: RIP1 Ki

Ki [nM]	SMILES
12.9	CN1C(=O)[C@@H](NC(=O)c2n[nH]c3ccc(C4CC4)cc23)COc2ccccc21 [Example 92, (S)-5-cyclopropyl-N-(5-methyl-4-oxo-2,3,4,5-tetrahydrobenzo[b][1,4]oxazepin-3-yl)-1H-indazole-3-carboxamide]
27.1	CN1C(=O)[C@@H](NC(=O)c2ncn(Cc3ccccc3)n2)CCn2nc(C(F)(F)F)cc21 [Example 91, (S)-1-benzyl-N-(4-methyl-5-oxo-2-(trifluoromethyl)-5,6,7,8-tetrahydro-4H-pyrazolo[1,5-a][1,3]diazepin-6-yl)-1H-1,2,4-triazole-3-carboxamide]
51.5	CN1C(=O)[C@@H](NC(=O)c2n[nH]c3ccc(Cl)nc23)COc2ccccc21 [Example 143, 5-chloro-N-[(3S)-5-methyl-4-oxo-2,3-dihydro-1,5-benzoxazepin-3-yl]-1H-pyrazolo[4,3-b]pyridine-3-carboxamide]
390	CN1C(=O)C(NC(=O)c2cn(Cc3ccccc3)nn2)CCn2nc3c(c21)CCCC3 (centres unmarked) [Example 135, 1-benzyl-N-(1-methyl-2-oxo-2,3,4,5,8,9,10,11-octahydro-1H-[1,3]diazepino[1,2-b]indazol-3-yl)-1H-1,2,3-triazole-4-carboxamide]

Same assay, conditions: human RIP1 kinase domain (2-375), Transcreener ADP assay, 50 uM ATP, 2 hours incubation; read-out: RIP1 Ki

Ki [nM]	SMILES
57.8	CN1C(=O)[C@@H](NC(=O)c2ncn(Cc3ccc(F)cc3)n2)CCn2nc([C@@H]3CC3(F)F)cc21 [Example 323, N—((S)-2-((S)-2,2-difluorocyclopropyl)-4-methyl-5-oxo-5,6,7,8-tetrahydro-4H-pyrazolo[1,5-a][1,3]diazepin-6-yl)-1-(4-fluorobenzyl)-1H-1,2,4-triazole-3-carboxamide]
6610	CN1C(=O)[C@@H](NC(=O)c2ncn(Cc3ccc(F)cc3)n2)CCn2nc([C@H]3CC3(F)F)cc21 [Example 317, N—((S)-2-((R)-2,2-difluorocyclopropyl)-4-methyl-5-oxo-5,6,7,8-tetrahydro-4-pyrazolo[1,5-a][1,3]diazepin-6-yl)-1-(4-fluorobenzyl)-1H-1,2,4-triazole-3-carboxamide]
226	CN1C(=O)C(NC(=O)c2n[nH]c(Cc3ccccc3)n2)CCn2nc(C3CCOCC3)cc21 (centres unmarked) [Example 235, 5-benzyl-N-(4-methyl-5-oxo-2-(tetrahydro-2H-pyran-4-yl)-5,6,7,8-tetrahydro-4H-pyrazolo[1,5-a][1,3]diazepin-6-yl)-1H-1,2,4-triazole-3-carboxamide]

SMILES	Ki [nM]
CN1C(=O)[C@@H](NC(=O)c2n[nH]c3ncc(C(F)(F)F)cc23)COc2ccccc21 [Example 279, (S)—N-(5-methyl-4-oxo-2,3,4,5-tetrahydrobenzo[b][1,4]oxazepin-3-yl)-5-(trifluoromethyl)-1H-pyrazolo[3,4-b]pyridine-3-carboxamide]	98.1

Same assay, conditions: tight-binding apparent inhibition constant; human RIP1 kinase domain (2-375) 50 nM, 50 uM ATP, 2 hours; read-out: Ki

Ki [nM]	SMILES
6500	CN1C(=O)[C@@H](NC(=O)c2nc3n(n2)[C@H](c2cnn(C)c2)CCC3)COc2ccccc21 (racemic) [Example 411, (S)-5-(1-methyl-1H-pyrazol-4-yl)-N—((S)-5-methyl-4-oxo-2,3,4,5-tetrahydrobenzo[b][1,4]oxazepin-3-yl)-5,6,7,8-tetrahydro-[1,2,4]triazolo[1,5-a]pyridine-2-carboxamide]
143	Cn1cc(C2CCCc3nc(C(=O)N[C@H]4CCc5cc(F)cc(F)c5NC4=O)nn32)cn1 (stereo partly drawn) [Example 433, N—((S)-7,9-difluoro-2-oxo-2,3,4,5-tetrahydro-1H-benzo[b]azepin-3-yl)-5-(1-methyl-1H-pyrazol-4-yl)-5,6,7,8-tetrahydro-[1,2,4]triazolo[1,5-a]pyridine-2-carboxamide]
226	CN1C(=O)[C@@H](NC(=O)c2nc3n(n2)[C@H](C(F)(F)F)CC3)CCn2nccc21 [Example 344, (5S)—N-[(6S)-4-methyl-5-oxo-7,8-dihydro-6H-pyrazolo[1,5-a][1,3]diazepin-6-yl]-5-(trifluoromethyl)-6,7-dihydro-5H-pyrrolo[1,2-b][1,2,4]triazole-2-carboxamide]
207	CC(C)[C@H]1CCCc2nc(C(=O)N[C@H]3COc4cc(F)cc(F)c4NC3=O)nn21 (single isomer, unassigned) [Example 447]
38	O=C(N[C@H]1CCc2cc(F)cc(F)c2NC1=O)c1nc2n(n1)CCO[C@H]2c1ccccc1 [Example 638, (8S)-8-phenyl-N-[(3S)-7,9-difluoro-2-oxo-1,3,4,5-tetrahydro-1-benzazepin-3-yl]-6,8-dihydro-5H-[1,2,4]triazolo[5,1-c][1,4]oxazine-2-carboxamide]
374	CCC1CCCc2nc(C(=O)N[C@H]3CCn4nccc4N(C)C3=O)nn21 (stereo partly drawn) [Example 379, 5-ethyl-N—((S)-4-methyl-5-oxo-5,6,7,8-tetrahydro-4H-pyrazolo[1,5-a][1,3]diazepin-6-yl)-5,6,7,8-tetrahydro-[1,2,4]triazolo[1,5-a]pyridine-2-carboxamide]
172	CN1C(=O)[C@@H](NC(=O)c2ncc3c(n2)[C@]2(CCOC2)OC3)COc2ccccc21 (racemic) [Example 694, rac-(7S)-N-[rac-(3S)-5-methyl-4-oxo-2,3-dihydro-1,5-benzoxazepin-3-yl]spiro[5H-furo[3,4-d]pyrimidine-7,3′-tetrahydrofuran]-2-carboxamide]
803	CN1C(=O)[C@@H](NC(=O)c2nc3n(n2)[C@H](c2ccccc2F)CC3)CCn2nccc21 [Example 466, (S)-5-(2-fluorophenyl)-N—((S)-4-methyl-5-oxo-5,6,7,8-tetrahydro-4H-pyrazolo[1,5-a][1,3]diazepin-6-yl)-6,7-dihydro-5H-pyrrolo[1,2-b][1,2,4]triazole-2-carboxamide]
174	CC(C)[C@H]1CCCc2nc(C(=O)N[C@H]3CCc4cc(F)cc(F)c4NC3=O)nn21 (single isomer, unassigned) [Example 434]
35.6	CN1C(=O)[C@@H](NC(=O)c2nc3cccc(C4CCOCC4)n3n2)COc2ccccc21 [Example 405, (S)—N-(5-methyl-4-oxo-2,3,4,5-tetrahydrobenzo[b][1,4]oxazepin-3-yl)-5-(tetrahydro-2H-pyran-4-yl)-[1,2,4]triazolo[1,5-a]pyridine-2-carboxamide]
42.3	CN1C(=O)[C@@H](NC(=O)c2nc3n(n2)C(c2ccccc2)CCC3)COc2ccccc21 (stereo partly drawn) [Example 376, N—((S)-5-methyl-4-oxo-2,3,4,5-tetrahydrobenzo[b][1,4]oxazepin-3-yl)-5-phenyl-5,6,7,8-tetrahydro-[1,2,4]triazolo[1,5-a]pyridine-2-carboxamide]
73.8	CC[C@@]1(C)OCc2cnc(C(=O)N[C@H]3COc4ccccc4N(C)C3=O)nc21 (mixture of isomers) [Example 682, (7R)-7-ethyl-7-methyl-N-[rac-(3S)-5-methyl-4-oxo-2,3-dihydro-1,5-benzoxazepin-3-yl]-5H-furo[3,4-d]pyrimidine-2-carboxamide]
160	O=C(N[C@H]1CCc2cc(F)cc(F)c2NC1=O)c1nc2n(n1)CC[C@@H]2c1ccccc1 (single isomer, unassigned) [Example 627]
9.29	CCC[C@@H]1CCCc2nc(C(=O)N[C@H]3COc4cc(C)cc(F)c4NC3=O)nn21 (single isomer, unassigned) [Example 441]
